The subject of this test is P388 leukemia ip, CD2F1 mice, survival T/C. Put plainly: NCI In Vivo Anticancer Drug Screen. Data for tumor model P388 Leukemia (intraperitoneal) in CD2F1 (CDF1) mice. The conditions noted are these: endpoint: median survival time, higher = longer survival. The gist of the method:
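Mice carrying the transplanted tumor received test compound or vehicle. Survival was recorded in each group, and the value is the treated-group measurement divided by that of the vehicle-treated control group.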

The mark [1] stands for this setting: dose: 100.0 mg/kg/injection, schedule: Q01DX005 (ip), vehicle: Klucel (hydroxypropylcellulose) (HPC).
[2] abbreviates: dose: 200.0 mg/kg/injection, schedule: Q01DX005 (ip), vehicle: Klucel (hydroxypropylcellulose) (HPC).
The mark [3] stands for this setting: dose: 60.0 mg/kg/injection, schedule: Q01DX005 (ip), vehicle: saline with Tween-80.
Setting [4] is: dose: 120.0 mg/kg/injection, schedule: Q01DX005 (ip), vehicle: saline with Tween-80.
[5] abbreviates: dose: 50.0 mg/kg/injection, schedule: Q01DX005 (ip), vehicle: Klucel (hydroxypropylcellulose) (HPC).
[6] abbreviates: dose: 25.0 mg/kg/injection, schedule: Q01DX005 (ip), vehicle: saline.
Where [7] appears, read: dose: 50.0 mg/kg/injection, schedule: Q01DX005 (ip), vehicle: saline.
The mark [8] stands for this setting: dose: 100.0 mg/kg/injection, schedule: Q01DX001 (ip), vehicle: saline with Tween-80.
The mark [9] stands for this setting: dose: 200.0 mg/kg/injection, schedule: Q01DX001 (ip), vehicle: saline with Tween-80.
The mark [10] stands for this setting: dose: 400.0 mg/kg/injection, schedule: Q01DX001 (ip), vehicle: saline with Tween-80.
Where [11] appears, read: dose: 50.0 mg/kg/injection, schedule: Q01DX005 (ip), vehicle: saline with Tween-80.
Where [12] appears, read: dose: 100.0 mg/kg/injection, schedule: Q01DX005 (ip), vehicle: saline with Tween-80.

Each structure is given as a SMILES string. Several values for one entry are separate records, joined by “and”; a condition that tells them apart may be missing. Identical values can stand only once. Toxic doses and inconclusive results are not listed.

As for `Cn1c(=O)c2c(ncn2Cc2ccc(O)c([N+](=O)[O-])c2)n(C)c1=O`, the T/C (dose: 25.0 mg/kg/injection, schedule: Q01DX005 (ip), vehicle: Klucel (hydroxypropylcellulose) (HPC)) is 91 % of control; the T/C under setting [1] was 94 % of control; the T/C under setting [2] is 92 % of control.

On to `CCCC(O)/C=C/C=C/C=C/C#CC#CCCCO` (stereo not given), for which the T/C is, setting by setting: (dose: 0.25 mg/kg/injection, schedule: Q01DX005 (ip), vehicle: DMSO) 105 % of control; (dose: 1.0 mg/kg/injection, schedule: Q01DX005 (ip), vehicle: DMSO) 101 % of control and 110 % of control; (dose: 2.0 mg/kg/injection, schedule: Q01DX005 (ip), vehicle: DMSO) 124 % of control and 96 % of control; (dose: 4.0 mg/kg/injection, schedule: Q01DX005 (ip), vehicle: DMSO) 104 % of control; (dose: 8.0 mg/kg/injection, schedule: Q01DX005 (ip), vehicle: DMSO) 105 % of control.

Consider `O=c1oc(-c2ccc(Cl)cc2Cl)nc2cc(Cl)ccc12`, for which the T/C is 104 % of control under setting [3] and 112 % of control under setting [4].

As to `CC(=O)OC1C(C)OC(OC2C(OC(=O)C3CCC4C(C3)OC3(CC(OC(=O)/C=C/c5ccccc5)C(C)CO3)C43CO3)OC(C)C(OC(C)=O)C2OC(C)=O)C(OC(C)=O)C1OC(C)=O` (stereo not given), the T/C by setting is: (dose: 3.0 mg/kg/injection, schedule: Q01DX005 (ip), vehicle: saline) 100 % of control; (dose: 3.75 mg/kg/injection, schedule: Q01DX009 (ip), vehicle: saline + alcohol) 100 % of control; (dose: 6.0 mg/kg/injection, schedule: Q01DX005 (ip), vehicle: saline) 106 % of control; (dose: 7.5 mg/kg/injection, schedule: Q01DX009 (ip), vehicle: saline + alcohol) 98 % of control; (dose: 12.0 mg/kg/injection, schedule: Q01DX005 (ip), vehicle: saline) 99 % of control; (dose: 15.0 mg/kg/injection, schedule: Q01DX009 (ip), vehicle: saline + alcohol) 102 % of control. Also, the T/C by setting is: (dose: 24.0 mg/kg/injection, schedule: Q01DX005 (ip), vehicle: saline) 106 % of control; (dose: 30.0 mg/kg/injection, schedule: Q01DX009 (ip), vehicle: saline + alcohol) 104 % of control.

For `COC(=O)C(CSSCC(C(=O)NC(Cc1ccccc1)C(=O)NCC(=O)OC(C)(C)C)N1C(=O)CCC1=O)NC(=O)OCc1ccccc1` (stereo not given), the T/C under setting [5] was 103 % of control, the T/C under setting [1] was 93 % of control and the T/C under setting [2] is 96 % of control.

As for `O=c1[nH]nc(-c2ccccc2)c2nc3ccccc3n12`, the T/C was 88 % of control (dose: 60.0 mg/kg/injection, schedule: Q01DX005 (ip), vehicle: Klucel (hydroxypropylcellulose) (HPC)); 87 % of control (dose: 120.0 mg/kg/injection, schedule: Q01DX005 (ip), vehicle: Klucel (hydroxypropylcellulose) (HPC)); 88 % of control (dose: 240.0 mg/kg/injection, schedule: Q01DX005 (ip), vehicle: Klucel (hydroxypropylcellulose) (HPC)).

Consider `CC1(C)N=C(N)N=C(N)N1c1ccc(Cl)cc1`, for which the T/C is, setting by setting: (dose: 12.5 mg/kg/injection, schedule: Q01DX005 (ip), vehicle: saline) 103 % of control; under setting [6], 117 % of control; under setting [7], 124 % of control.

Turning to `COc1cc2c(cc1OC)[C@H]1[C@@H](CO)c3ccc4c(c3CN1CC2)OCO4`, the T/C was 109 % of control under setting [5], 92 % of control under setting [1] and 92 % of control under setting [2].

As to `c1cc[c]([Ge]([c]2ccccc2)[c]2ccccc2)cc1`, the T/C is 91 % of control under setting [3]; 100 % of control under setting [4]; 97 % of control (dose: 240.0 mg/kg/injection, schedule: Q01DX005 (ip), vehicle: saline with Tween-80).

With `COC(=O)Cn1/c(=N\N=C(/C)c2ccccc2)sc2ccccc21`, the T/C under setting [8] was 102 % of control, the T/C under setting [9] is 99 % of control and the T/C under setting [10] was 99 % of control.

Consider `Nc1ncnc2c1ncn2C1OC(COC2C(O)C(OC3OC(CO)C(O)C(O)C3N)C(O)C(OS(=O)(=O)O)C2OC(=O)[C@@H](N)CO)C(O)C1O` (stereo not given in full), for which the T/C was 101 % of control (dose: 0.15 mg/kg/injection, schedule: Q01DX005 (ip), vehicle: Klucel (hydroxypropylcellulose) (HPC)); 98 % of control (dose: 0.31 mg/kg/injection, schedule: Q01DX005 (ip), vehicle: Klucel (hydroxypropylcellulose) (HPC)); 100 % of control (dose: 0.62 mg/kg/injection, schedule: Q01DX005 (ip), vehicle: Klucel (hydroxypropylcellulose) (HPC)); 100 % of control and 94 % of control (dose: 1.25 mg/kg/injection, schedule: Q01DX005 (ip), vehicle: Klucel (hydroxypropylcellulose) (HPC)).

For the compound `O=C(O)c1cc2c3ccccc3ncc2c2ccccc12`, the T/C reads like this: under setting [8], 113 % of control; under setting [9], 100 % of control; under setting [10], 100 % of control.

In the case of `CSc1nc(Cl)c(Br)c(N2CC2)n1`, the T/C runs as follows: under setting [11], 100 % of control; under setting [12], 107 % of control.

Take `O=C1C/C(=N\O)CON1c1ccccc1`: the T/C was 106 % of control (dose: 100.0 mg/kg/injection, schedule: Q01DX002 (ip), vehicle: Klucel (hydroxypropylcellulose) (HPC)); 98 % of control (dose: 200.0 mg/kg/injection, schedule: Q01DX002 (ip), vehicle: Klucel (hydroxypropylcellulose) (HPC)); 90 % of control (dose: 400.0 mg/kg/injection, schedule: Q01DX002 (ip), vehicle: Klucel (hydroxypropylcellulose) (HPC)).

With `COC(=O)Nc1c2c(nc3ccccc13)-c1ccccc1C(C)(C)C2OC` (stereo not given), the T/C runs as follows: under setting [5], 99 % of control; under setting [1], 108 % of control; under setting [2], 104 % of control.

With `CCN(CC)CCOc1ccc(-c2cc(-c3ccccc3)nc(N)n2)cc1`, the T/C by setting is: under setting [6], 106 % of control; under setting [7], 98 % of control and 100 % of control and 106 % of control; (dose: 100.0 mg/kg/injection, schedule: Q01DX005 (ip), vehicle: saline) 111 % of control and 114 % of control and 123 % of control.

Regarding `O=C(NN1C(=O)CS(=O)(=O)C1c1ccccc1F)c1ccncc1` (stereo not given), the T/C was 102 % of control (dose: 6.25 mg/kg/injection, schedule: Q01DX005 (ip), vehicle: saline with Tween-80); 98 % of control (dose: 12.5 mg/kg/injection, schedule: Q01DX005 (ip), vehicle: saline with Tween-80); 99 % of control (dose: 25.0 mg/kg/injection, schedule: Q01DX005 (ip), vehicle: saline with Tween-80); 97 % of control under setting [11]; 90 % of control under setting [12]; 97 % of control (dose: 200.0 mg/kg/injection, schedule: Q01DX005 (ip), vehicle: saline with Tween-80).

For `COC1=C(C)C(=O)C2=C(C1=O)C1C3CC4=C(C(=O)C(OC)=C(C)C4=O)C(CNC(=O)C(C)=O)N3C(C#N)C(C2)N1C` (stereo not given), the T/C (dose: 0.06 mg/kg/injection, schedule: Q01DX009 (ip), vehicle: Klucel (hydroxypropylcellulose) (HPC)) is 122 % of control; the T/C (dose: 0.31 mg/kg/injection, schedule: Q01DX009 (sc), vehicle: Klucel (hydroxypropylcellulose) (HPC)) is 107 % of control; the T/C (dose: 0.62 mg/kg/injection, schedule: Q01DX009 (ip), vehicle: Klucel (hydroxypropylcellulose) (HPC)) is 160 % of control; the T/C (dose: 0.62 mg/kg/injection, schedule: Q01DX009 (sc), vehicle: Klucel (hydroxypropylcellulose) (HPC)) is 115 % of control; the T/C (dose: 1.0 mg/kg/injection, schedule: Q01DX009 (ip), vehicle: saline) was 156 % of control; the T/C (dose: 1.25 mg/kg/injection, schedule: Q01DX009 (ip), vehicle: Klucel (hydroxypropylcellulose) (HPC)) is 107 % of control. Moreover, the T/C (dose: 1.25 mg/kg/injection, schedule: Q01DX009 (sc), vehicle: Klucel (hydroxypropylcellulose) (HPC)) is 118 % of control and the T/C (dose: 2.0 mg/kg/injection, schedule: Q01DX009 (ip), vehicle: saline) is 87 % of control.

Turning to `CC12CCC(=O)C=C1CCC1C2CCC2(C)C(OC(=O)C34C=CC(=O)C3C3C=CC4CC3)CCC12` (stereo not given), the T/C was 95 % of control (dose: 25.0 mg/kg/injection, schedule: Q01DX005 (ip), vehicle: distilled water + Tween-80) and 92 % of control (dose: 50.0 mg/kg/injection, schedule: Q01DX005 (ip), vehicle: distilled water + Tween-80).

Source of the values: PubChem BioAssay AID330 (DTP/NCI, 2004).
